Tested on: Ctenocephalides felis
Test: Flea (Ctenocephalides felis) Membrane Feed Assay-Adult
Conditions: for minimum effective concentration (MEC): assessed at 24 hours, 10-flea sample; for lethal dose 80% (LD80): adult fleas fed approx. 2 hours on treated citrated bovine blood, knockdown and/or death observed at approx. 2 and 24 hours
Protocol: Flea (Ctenocephalides felis) Membrane Feed Assay-Adult
Formula (1) compounds were dissolved in DMSO and aliquots added to citrated bovine blood in a membrane covered Petri dish pre-warmed to 37° C. Feeding tubes containing approximately 30-35 adult fleas were placed onto the Petri dishes. The fleas fed for approximately 2 hours. […] Endpoint data is recorded as a lethal dose 80% (LD^80) in μg/mL. […] Further, the results can be assessed at 24 hours based on minimum effective concentration (MEC) in μM with a 10-flea sample.

| Structure (SMILES) | minimum effective concentration (MEC) [µM] | lethal dose 80% (LD80) [µg/mL] |
| --- | --- | --- |
| CS(=O)(=O)CC(=O)N1CC(F)(c2ccc(C3=NCC(c4cc(Cl)cc(Cl)c4)(C(F)(F)F)C3)cc2)C1 (centres unmarked) [Example 1, 1-(3-{4-[4-(3,5-dichloro-phenyl)-4-trifluoromethyl-4,5-dihydro-3H-pyrrol-2-yl]-phenyl}-3-fluoro-azetidin-1-yl)-2-methanesulfonyl-ethanone] | 3 |  |
| CC(C)C(=O)N1CC(F)(c2ccc(C3=NCC(c4cc(Cl)cc(Cl)c4)(C(F)(F)F)C3)cc2)C1 (centres unmarked) [Example 2, 1-(3-{4-[4-(3,5-dichloro-phenyl)-4-trifluoromethyl-4,5-dihydro-3H-pyrrol-2-yl]-phenyl}-3-fluoro-azetidin-1-yl)-2-methyl-propan-1-one] | 1 | 0.3 |
| CS(=O)(=O)CC(=O)N1CC(F)(c2ccc(C3=NCC(c4cc(Cl)c(F)c(Cl)c4)(C(F)(F)F)C3)cc2)C1 (centres unmarked) [Example 3, 3-(3,5-dichloro-4-fluorophenyl)-5-(4-{3-fluoro-1-[(methylsulfonyl)-acetyl]azetidin-3-yl}phenyl)-3-(trifluoromethyl)-3,4-dihydro-2H-pyrrole] | 1 | 3 |
| CC(C)C(=O)N1CC(F)(c2ccc(C3=NCC(c4cc(Cl)c(F)c(Cl)c4)(C(F)(F)F)C3)cc2)C1 (centres unmarked) [Example 4, 3-(3,5-dichloro-4-fluorophenyl)-5-[4-(3-fluoro-1-isobutyrylazetidin-3-yl)phenyl]-3-(trifluoromethyl)-3,4-dihydro-2H-pyrrole] | 1 |  |
| CS(=O)(=O)CC(=O)N1CC(F)(c2ccc(C3=NCC(c4cc(Cl)c(Cl)c(Cl)c4)(C(F)(F)F)C3)cc2)C1 (centres unmarked) [Example 5, 1-(3-fluoro-3-{4-[4-(3,4,5-trichloro-phenyl)-4-trifluoromethyl-4,5-dihydro-3H-pyrrol-2-yl]-phenyl}-azetidin-1-yl)-2-methanesulfonyl-ethanone] | 1 | 1 |
| CC(C)C(=O)N1CC(F)(c2ccc(C3=NCC(c4cc(Cl)c(Cl)c(Cl)c4)(C(F)(F)F)C3)cc2)C1 (centres unmarked) [Example 6, 5-[4-(3-fluoro-1-isobutyrylazetidin-3-yl)phenyl]-3-(3,4,5-trichloro-phenyl)-3-(trifluoromethyl)-3,4-dihydro-2H-pyrrole] |  | 3 |
| CC(C)C(=O)N1CC(F)(c2ccc(C3=NOC(c4cc(Cl)c(F)c(Cl)c4)(C(F)(F)F)O3)cc2)C1 (centres unmarked) [Example 8, 1-(3-{4-[5(3,5-dichloro-4-fluoro-phenyl)-5-trifluoromethyl-[1,4,2]dioxazol-3-yl]-phenyl}-3-fluoro-azetidin-1-yl)-2-methyl-propan-1-one] | 30 |  |
| CS(=O)(=O)CC(=O)N1CC(F)(c2ccc(C3=NNC(c4cc(Cl)c(F)c(Cl)c4)(C(F)(F)F)C3)cc2)C1 (centres unmarked) [Example 18, 1-(3-(4-(5-(3,5-dichloro-4-fluorophenyl)-5-(trifluoromethyl)-4,5-dihydro-1H-pyrazol-3-yl)phenyl)-3-fluoroazetidin-1-yl)-2-(methylsulfonyl)ethanone] | 30 |  |

Reference: patent US9073912B2, “Azetidine derivatives as antiparasitic agents” (Zoetis LLC, priority 2012, dated 2015)
